Results on four molecules are retold here after patent publication US9642821B2, “MiR-182 in the diagnosis and treatment of cancer” (Dana-Farber Cancer Institute, Inc., priority 2010, dated 2017).

Common to all, as to format: cell-based
For one series, the system named is BRCA1. Briefly: BRCA1 expression after ectopic miRNA overexpression in HL60 cells (immunoblot, qPCR). The note with it: HL60 cells transiently transfected with expression vectors, Western blot. The protocol: Analysis of the miRNAs of the miR-183 cluster was conducted using qPCR using the TaqMan MicroRNA Assay from Applied Biosystems as per the manufacturer's instructions and normalized to RNU6B snRNA. Analysis of mRNA expression was carried out with qPCR using the SYBR Green master mix (Applied Biosystems, Foster City, Calif.) according to the manufacture's manual and the BioRad iCycler. The mRNA (1 μg) was reverse transcribed with 50 ng random primers using 100 U moloney murine leukemia virus (MMLV) reverse transcriptase (Epicentre, Madison, Wis.) according to the manufacturer's manual. Results were normalized to 5SrRNA or GAPDH.
In each experiment, where Western blot analysis was done, a fraction of 0.2−0.5×10^6 cells was taken out at day, 3 or 4, post-transfection. Breast cancer cell lines were collected from 6 well tissue culture plates (0.5-1×10^6 cells). Cells lysates were prepared in RIPA buffer (150 mM NaCl, 1% NP-40, 0.5% sodium deoxycholate, 0.1% SDS, 50 mM Tris, pH 8.0). Lysates of 0.1×10^6 cells of each sample plus loading buffer were loaded on 8% SDS-PAGE gels, semi-dry transferred on nitrocellulose membrane, and probed with anti-BRCA1 antibody at a 1:500 dilution (CALBIOCHEM, MS110) and anti-tubulin antibody at a 1:10,000 dilution (Sigma, Clone B-5-1-2).
On the technique in general: Immunoblotting shows a protein as a band on a membrane.

Another series has as its system BRCA1 transcript. Briefly: Immunoprecipitation of HA-AGO1/miRNA complex, qRT-PCR of bound transcripts, MDA-MB231. The note with it: MDA-MB231, HA-AGO1 IP, normalized to 5S rRNA. As for the experimental part:
miR-182 cDNA and miR-17 cDNA was cloned from HL60 cDNA in pcDNA3.1-Puro expression vector (Invitrogen, Carlsbad, Calif.) using the following primers: […]
MDA-MB231 cells (0.5×10^6 cells) were co-transfected with 1 μg of HA-AGO1 (pIRES-FLAG/HA vector, Addgene) and 0.5 μg of expression vector for miR-182/miR-17 or miR-scr using Lipofectamine 2000. After 2 days cells were harvested using 400 μl lysis buffer (100 mM KCl, 5 mM MgCl2, 10 mM Hepes, pH 7.0, 0.5% Nonidet P-40) containing freshly added RNase inhibitor, RNaseOUT (Invitrogen, Carlsbad, Calif.) and Protease Inhibitor Cocktail (Roche, Basel, Switzerland). After centrifugation, a 50 μl aliquot of supernatant was taken as the input for subsequent RNA extraction. The remaining supernatant was gently shaken with HA-beads (HA-probe Santa Cruz sc-7392) for 4 h at 4° C. in spin columns (Pierce Spin Columns-Screw Cap). The columns were drained, washed and the retained beads were treated with 5 U DNaseI in NT2 buffer (50 mM Tris, pH7.4, 150 mM NaCl, 1 mM MgCl2, 0.05% Nonidet P-40) for 10 minutes at 37° C., washed with NT2 buffer and then treated with Proteinase K in NT2 buffer plus 1% SDS for 30 minutes at 55° C. […] RNA was reverse transcribed (see RNA isolation) and analyzed with qPCR for enrichment of mRNA of miR-182/miR-17 predicted targets.
Background: Real-time PCR tracks product formation cycle by cycle.

A further series concerns PARP. The series is described as follows: PARP activity assay (universal PARP chemiluminescent kit) in MDA-MB231 cells. The note with it: MDA-MB231, increasing concentrations, 100 μM H2O2. As for the experimental part:
MDA-MB231 cells (2×10^6) were plated in 10-cm tissue culture dishes overnight in duplicates. The cells were exposed to the indicated concentrations of 4-Amino-1,8-naphthalimide in phosphate buffered saline (PBS) for 10 minutes on ice followed by 100 μM H2O2 for 20 minutes on ice. The cells were then washed thrice in ice cold PBS for 8-10 minutes and incubated in complete medium with the indicated concentrations of 4-Amino-1,8-naphthalimide at 37° C. The cells were then lysed and PARP activity was measured using the universal PARP chemiluminescent assay kit (Trevigen, Gaithersburg, Md.) as per the manufacturer's instructions.

The subject of the next series is HL60 and K562 cells. The series is described as follows: TPA differentiation of blood cells, miR-182 qRT-PCR. The note with it: TPA-treated blood cells. The protocol: (§1) HL60 cells (0.5×10^6 cells/ml) were differentiated either to neutrophils with 1.3% DMSO for 8 days or to macrophages with 16 nM tetradecanoyl phorbol acetate (TPA) for 3 days; K562 cells (0.5×10^6 cells/ml) to megakaryocytes with 16 nM phorbol myristate acetate (PMA) for 3 days or to erythrocytes with […] for 4 days. HL60 and K562 cells were grown in DMEM or RPMI-1640, respectively, supplemented with 10% (v/v) FBS. MCF-7 cells (10^6 cells/6 cm dish) were differentiated with 100 nM TPA for 3 days in Dulbecco's Modified Eagle Medium (DMEM) with 10% (v/v) fetal bovine serum (FBS) (Cunliffe et al., Cancer Res., 63:7158-66 (2003). The breast cancer lines and human mammary epithelial cells used in experiments shown in FIGS. 6 and 10, were cultured in media according to protocols from the American Type Culture Collection (ATCC®; Manassas, Va.) (www.atcc.org/).
Analysis of the miRNAs of the miR-183 cluster was conducted using qPCR using the TaqMan MicroRNA Assay from Applied Biosystems as per the manufacturer's instructions and normalized to RNU6B snRNA. Analysis of mRNA expression was carried out with qPCR using the SYBR Green master mix (Applied Biosystems, Foster City, Calif.) according to the manufacture's manual and the BioRad iCycler. […]

A further series has as its system MCF7 cells. The series is described as follows: TPA treatment of MCF7 cells, cell cycle analysis. The note with it: breast cancer lines (MCF7), 100 nM TPA. As for the experimental part:
as §1
MCF-7 cells were differentiated with 100 nM TPA. At day 0, 1, 2, and 3 cells were collected, fixed with 70% cold ethanol and stored at −20° C. Permeabilized cells were centrifuged, washed once with PBS, and incubated for 30 minutes in propidium iodide (PI)/RNase Staining Buffer (BD Pharmingen, San Diego, Calif.) at 25° C. before flow cytometric analysis.

Consider “miR-183: miRNA of cluster-183, co-expressed with miR-182; expression vector (GUAUGGCACUGGUAGAAUUCACUGU; listed as Homo sapiens) [reference compound]”, for which the BRCA1 protein level entry in the series on BRCA1 is “did not affect”.

Regarding “miR-17: another miRNA predicted to target BRCA1; expression vector [reference compound]”, in the series with BRCA1 transcript, the “association of miRNA/AGO1 complex with BRCA1 transcript” value is on record as “did not associate”.

On to `Nc1ccc2c3c(cccc13)C(=O)NC2=O` [ANI, 4-Amino-1,8-naphthalimide], for which the PARP activity entry in the series with PARP is given as “PARP inhibition was confirmed”; with PARP (listed as 4-Amino-1,8-naphthalimide), “inhibits PARP activity”.

Take “12-O-tetradecanoylphorbol-13-acetate [TPA]”: the miR-182 expression result in the series with HL60 and K562 cells is given as “induces expression of miR-182”. In addition, in the series with MCF7 cells, the cell cycle state entry was “leads to a post-mitotic state”.
